Measured values from US20080152714A1, “Pharmaceutical Formulations” (priority 2005, published 2008).
Read-outs that look alike come from different tables or passages of the source.

Tests used:
[1] = Solubility of fenofibric acid salts in water at 25° C.; format: physicochemical
Procedure: Solubility Determination: Solubility values of fenofibric acid salts in water were determined at 25° C. The salts were weighed into glass vials and water was added. The suspensions were rotated from end to end for about 2 days in a 25° C. water bath. The pH of the suspensions was measured. The residual solid was then removed via filtration through a 0.45 μm PTFE membrane filter. The resulting saturated solution was diluted appropriately into the HPLC mobile phase, and analyzed by the HPLC assay described below (Table 3). The powder x-ray diffraction pattern of the collected residual solid was recorded at the end of experiment.

[2] = Intrinsic dissolution rate (IDR); format: physicochemical; conditions: pH 6.8, 50 mM sodium citrate buffer, 37° C.
Procedure: The intrinsic dissolution rate is the rate of dissolution of pharmaceutically acceptable ingredients when conditions such as surface area, agitation or stirring speed, pH and ionic strength of the dissolution medium are held constant.
Pellets of the salts were prepared by compressing ca. 100 mg of the compound in a stainless steel die under 1300 pounds force with a dwell time of one minute. The die containing the tablet was submerged in 400 mL of the dissolution medium at 37° C. The solution was stirred by a paddle at ˜60 rpm. At each time point, 3 mL of sample was withdrawn and filtered. After discarding the first half of the filtrate, the remainder was collected and assayed by HPLC method above. The total volume of the dissolution medium was kept at a constant by replenishing the lost volume at each data point with fresh buffer at 37 C.

## C[N+](C)(C)CCO [Choline]
[1]; read-out: Solubility
  solubility: > 300000 µg/mL
[2]
  IDR: 14.50 mg/min/cm^2

## NCCO [Ethanolamine]
[2]
  IDR: 8.05 mg/min/cm^2

## CC(C)(Oc1ccc(C(=O)c2ccc(Cl)cc2)cc1)C(=O)O [Free acid, 2-[4-(4-chlorobenzoyl)phenoxy]-2-methyl-propanoic acid, reference compound]
[1]; read-out: Solubility
  solubility: 265 µg/mL
[2]
  IDR: 0.30 mg/min/cm^2

## CN(C)C(=N)N=C(N)N [Metformin]
[2]
  IDR: 7.09 mg/min/cm^2

## CCN(CC)CCOC(=O)c1ccc(N)cc1 [Procaine]
[1]; read-out: Solubility
  solubility: 7200 µg/mL
[2]
  IDR: 1.06 mg/min/cm^2

## Calcium
[2]
  IDR: 0.10 mg/min/cm^2

## Tris
[1]
  solubility: 5450 µg/mL
[2]
  IDR: 0.67 mg/min/cm^2
